Data as given in patent publication US20120322869A1, “ESTER COMPOUND AND USE THEREOF” (SUMITOMO CHEMICAL COMPANY, LIMITED, priority 2010, published 2012).

Assays:
[1] = tested on: German cockroaches (Blattella germanica); experiment: Spray knock-down test with 0.1% (w/v) oil solution on German cockroaches (Test Example 2); format: in vivo; settings: adult Blattella germanica, 1.5 ml of 0.1% (w/v) oil solution sprayed
Description: Zero point one (0.1) part of the compound of the present inventions (1) and (2) was dissolved in 10 parts of isopropyl alcohol and the solution was mixed with 89.9 parts of deodorized kerosene to prepare a 0.1% (w/v) oil solution.
Ten adult German cockroaches (Blattella germanica, 5 males and 5 females) were released in a test container (diameter 8.75 cm, 7.5 cm high, the bottom face is made of 16 mesh metallic wire), the inner face on which butter was applied, and the container was set at the bottom of a test chamber (bottom face: 46 cm×46 cm, height: 70 cm).
Each 1.5 ml of the oil solution of the compound of the present invention (1) and (2) was sprayed using a spray gun at a pressure of 0.4 kg/cm^2 from 60 cm higher than the upper face of the container. Thirty seconds after the spraying, the container was pulled out from the chamber. Two minutes after spraying, the number of knocked-down […] was counted and a knock-down ratio was determined. A knocked-down ratio was calculated by the following equation.
Knocked-down ratio=(Number of knocked-down cockroaches/Number of test cockroaches)×100

[2] = tested on: American cockroaches (Periplaneta americana); experiment: Spray knock-down test with 0.1% (w/v) oil solution on American cockroaches (Test Example 1); format: in vivo; settings: adult Periplaneta americana, 1.5 ml of 0.1% (w/v) oil solution sprayed
Description: Zero point one (0.1) part of the compound of the present inventions (1) was dissolved in 10 parts of isopropyl alcohol and the solution was mixed with 89.9 parts of deodorized kerosene to prepare a 0.1% (w/v) oil solution.
Six adult American cockroaches (Periplaneta americana, 3 males and 3 females) were released in a test container (diameter 12.5 cm, 10 cm high, the bottom face is made of 16 mesh metallic wire), the inner face on which butter was applied, and the container was set at the bottom of a test chamber (bottom face: 46 cm×46 cm, height: 70 cm). Each 1.5 ml of the oil solution of the compound of the present invention (1) was sprayed using a spray gun at a pressure of 0.4 kg/cm^2 from 60 cm higher than the upper face of the container. Thirty seconds after the spraying, the container was pulled out from the chamber. After a prescribed time, the number of knocked-down cockroaches was counted and a knock-down ratio was determined (repeated twice). The knocked-down ratio was calculated by the following equation.
Knocked-down ratio (%) (Number of knocked-down cockroaches/Number of test cockroaches)×100

Structure (SMILES)	Knock-down ratio (%) 2 minutes after spraying [1] [%]	Knock-down ratio (%) 5 minutes after spraying [2] [%]
C=CCC1=C(C)C(OC(=O)[C@@H]2[C@@H](C=C(C#N)SC)C2(C)C)CC1=O (relative stereo) [compound of the present invention (2), 2-methyl-3-(2-propenyl)cyclopent-2-en-4-on-1-yl=(1R)-trans-3-[(1EZ)-2-cyano-2-(methylthio)ethenyl]-2,2-dimethylcyclopropanecarboxylate]	100	–
C#CCC1=C(C)[C@@H](OC(=O)[C@@H]2[C@@H](/C=C(\C#N)SC)C2(C)C)CC1=O [compound of the present invention (1), (S)-2-methyl-3-(2-propynyl)cyclopent-2-en-4-on-1-yl=(1R)-trans-3-[(1E)-2-cyano-2-(methylthio)ethenyl]-2,2-dimethylcyclopropane carboxylate]	100	100
